Results from PMC3804772, “Rational Design, Synthesis, and Biological Evaluation of Third Generation α-Noscapine Analogues as Potent Tubulin Binding Anti-Cancer Agents” (PLoS ONE, 2013).
Where two headings read alike, the source gives them in different places.

Columns and labels:
[1] = tested on: tubulin; settings: cited from earlier work
[2] = tested on: MCF-7 cells; assay: Cell cycle analysis by flow cytometry (propidium iodide); assay type: cell-based, human; settings: MCF-7, 25 µM
Description: The flow cytometric evaluation of the cell cycle status was performed as described previously. Briefly, cells (2 x 10^6) treated with the noscapinoids up to 72 h were centrifuged, washed twice with cold PBS, and fixed in 70% ethanol. Tubes containing the cell pellets were stored at 4 °C for minimum of 24 h. Cells were then centrifuged at 1000 x g for 10 min and the supernatant was discarded. The pellets were washed twice with 5 ml of PBS and then stained with 0.5 ml of propidium iodide (0.1% of Pl + 0.6% Triton-X in PBS) and 0.5 ml of RNase A (2 mg/ml) for 45 minutes in dark. Samples were then analyzed on a FACS Calibur flow cytometer ([…]).

[3] = tested on: human lung adenocarcinoma epithelial cell line (A549); assay: In vitro cell proliferation assay (SRB), A549; assay type: cell-based; settings: 72 h, mean ± S.D.
Description: (§1) The cell proliferation assay was performed in 96-well plates as described previously. A panel of four cancer cell lines of different tissues of origins, namely: human lung adenocarcinoma epithelial cell line (A549), human lymphoblast cell line (CEM), human cervix cell line (HeLa) and human breast epithelial cell line (MCF-7) were studied. These cell lines were obtained from the National Repository of Animal Cell Culture, National Centre for Cell Sciences, Pune (NCCS), India. Briefly, 2 x10^3 cells were seeded in each well and were incubated with gradient concentrations of 5a, 6a-j compounds for 72 h. The cells were then fixed with 50% trichloroacetic acid and stained with 0.4% sulforhodamine B (SRB) dissolved in 1% acetic acid. Cells were then washed with1% acetic acid to remove excess (unbound) SRB. The protein-bound SRB was dissolved with 10 mM Tris base and the absorbance at 564 nm was determined using a SPECTRAmax PLUS 384 microplate spectrophotometer.

[4] = tested on: human lymphoblast cell line (CEM); assay: In vitro cell proliferation assay (SRB), CEM; assay type: cell-based; settings: 72 h, mean ± S.D.
Description: as §1

[5] = tested on: tubulin; assay: Tubulin binding of noscapine and previously reported noscapinoids (literature values); settings: Table 1; calculated from KD, ΔGbind = RT ln KD, T = 298 K
Description: Here ⟨ ⟩ represent the ensemble average, b represents the bound form of the ligand, f represents the free form of the ligand, and α, β, and γ are the coefficients. U vdw, U elec, and U cav are the van der Waals, electrostatic, and cavity energy terms in the SGB continuum solvent model. The cavity energy term, U cav, is proportional to the exposed surface area of the ligand. Various energy parameters included in equation 1 were calculated from the docked complex corresponding to each analogue using Liaison package as described previously. The average LIE energy terms were used for building the binding affinity model and estimation of binding free energies of noscapine derivatives. The α, β, and γ LIE fitting parameters were determined using Minitab statistical package (version 16.0, Minitab Inc.) by fitting the experimental binding affinities of training set molecules. A dataset consisting of 7 noscapine derivatives (compounds: 1, 2a-f; Figure 2) with known experimental binding affinities was used as a training set.

[6] = tested on: human breast epithelial cell line (MCF-7); assay: In vitro cell proliferation assay (SRB), MCF-7; assay type: cell-based; settings: MCF7, 72 h, mean ± S.D.
Description: as §1

[7] = tested on: human cervix cell line (HeLa); assay: In vitro cell proliferation assay (SRB), HeLa; assay type: cell-based; settings: 72 h, mean ± S.D.
Description: as §1

[8] = target: T1, tubulin (Bos taurus, UniProt P81947+Q6B856); assay: Tubulin binding assay (quenching of intrinsic tryptophan fluorescence); set-up: species or system bovine; settings: for Kd: 2 µM tubulin, PEM buffer pH 6.8, 37 °C, 45 min, mean ± S.D.; for Experimental ΔGbind: calculated from KD, ΔGbind = RT ln KD, T = 298 K
T1 construct: Tubulin devoid of microtubule-associated proteins (MAPs) was purified from bovine brain; from tissue; host or cells: bovine brain
Description: Tubulin devoid of microtubule-associated proteins (MAPs) was purified from bovine brain by cycles of temperature-dependent polymerization and depolymerization as described previously followed by phosphocellulose chromatography. The concentration of the tubulin was determined by the method of Bradford using BSA as the standard. Purified tubulin was quickly frozen as drops in liquid nitrogen and stored at - 80 °C until used.
Noscapinoids quench the […] intrinsic tryptophan fluorescence of tubulin in a concentration-dependent fashion as described previously. This has allowed an easy method for measuring the tubulin-noscapinoids interactions. Briefly, the compounds 5a, 6a-j (0-200 µM) were incubated with 2 µM tubulin in PEM buffer (100 mM PIPES, pH 6.8, 3 mM MgSO4, and 1 mM EGTA) at 37 °C for 45 min. After incubation, the samples were excited at 295 nm. The relative intrinsic fluorescence intensity of the tubulin was then monitored in the absence and presence of the compound 5a, 6a-j using a Varian Cary Eclipse Fluorescence Spectrophotometer (Agilent Technologies, CA, USA). The emission readings were recorded at 335 nm. We used a 0.3 cm path-length cuvette to minimize the inner filter effects caused by the absorbance of the noscapinoids. In addition, the inner filter effects were corrected using a formula F corrected = F observed·antilog [(A ex + A em)/2], where A ex is the absorbance at the excitation wavelength and A em is the absorbance at the emission wavelength. The equilibrium dissociation constant (KD) was determined by the formula: 1/a = KD/[free ligand] + 1, where a is the fractional occupancy and [free ligand] is the concentration of free ligand. The fractional occupancy (a) was determined by the formula a = ΔF/ΔF max, where ΔF is the change in fluorescence intensity when tubulin and its ligand are in equilibrium and ΔF max is the value of maximum fluorescence change when tubulin is completely bound with its ligand. ΔF max was calculated by plotting 1/ΔF versus 1/ligand, using total ligand concentration as the first estimate of free ligand concentration. Three independent experiments were performed for each noscapinoid.

[9] = Table 1, training set with known experimental binding affinities, mean ± S.D., read-out: KD value

T1 sequence (Q6B856 whole entry): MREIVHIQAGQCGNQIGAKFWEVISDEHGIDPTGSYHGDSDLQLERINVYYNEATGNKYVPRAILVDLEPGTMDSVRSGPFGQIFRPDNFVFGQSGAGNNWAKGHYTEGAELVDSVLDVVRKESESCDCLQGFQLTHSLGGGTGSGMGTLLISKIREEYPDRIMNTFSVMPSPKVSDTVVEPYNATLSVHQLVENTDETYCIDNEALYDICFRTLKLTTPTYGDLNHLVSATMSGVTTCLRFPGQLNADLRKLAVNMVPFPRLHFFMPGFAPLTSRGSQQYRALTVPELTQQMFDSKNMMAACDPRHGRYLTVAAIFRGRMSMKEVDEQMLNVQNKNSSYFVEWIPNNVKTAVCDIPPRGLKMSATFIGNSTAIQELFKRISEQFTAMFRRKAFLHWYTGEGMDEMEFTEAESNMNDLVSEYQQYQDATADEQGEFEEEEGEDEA
T1 sequence (P81947 whole entry): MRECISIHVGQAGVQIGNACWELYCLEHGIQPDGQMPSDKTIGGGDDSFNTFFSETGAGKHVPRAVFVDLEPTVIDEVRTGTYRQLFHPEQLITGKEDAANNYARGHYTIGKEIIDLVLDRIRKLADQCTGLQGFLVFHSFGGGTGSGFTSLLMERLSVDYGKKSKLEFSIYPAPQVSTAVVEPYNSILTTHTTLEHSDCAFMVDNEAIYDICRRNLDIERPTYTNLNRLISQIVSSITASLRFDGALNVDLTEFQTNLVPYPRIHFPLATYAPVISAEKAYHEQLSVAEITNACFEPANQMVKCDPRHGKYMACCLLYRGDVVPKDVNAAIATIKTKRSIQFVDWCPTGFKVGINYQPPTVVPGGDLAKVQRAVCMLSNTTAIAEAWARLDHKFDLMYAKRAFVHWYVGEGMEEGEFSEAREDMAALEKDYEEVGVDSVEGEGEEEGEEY

| IC50 [3] | Experimental ΔGbind [5] | IC50 [6] | IC50 [7] | melting point | Kd [8] | Experimental ΔGbind [8] | Structure (SMILES) | Binding stoichiometry, noscapine molecule per tubulin dimer [1] | Kd ([1]; values quoted in the text for comparison, read-out: Equilibrium dissociation constant (KD)) | Cell cycle parameters % G0/G1, 24 hours [2] | Cell cycle parameters % G2/M, 24 hours [2] | Cell cycle parameters % S, 24 hours [2] | Cell cycle parameters % Sub-G1, 24 hours [2] | Cell cycle parameters % G0/G1, 72 hours [2] | Cell cycle parameters % G2/M, 72 hours [2] | Cell cycle parameters % S, 72 hours [2] | Cell cycle parameters % Sub-G1, 72 hours [2] | IC50 [4] | Kd [1, 9] |
| --- | --- | --- | --- | --- | --- | --- | --- | --- | --- | --- | --- | --- | --- | --- | --- | --- | --- | --- | --- |
| 49 ± 2.5 µM | – | 38.2 ± 2.5 µM | 23.7 ± 1.5 µM | 154 °C | 91 ± 8 µM | -5.518 kcal/mol | COc1ccc2c(c1OC)C(=O)O[C@@H]2[C@H]1c2c(cc3c(c2OC)OCO3)CCN1Cc1ccc([N+](=O)[O-])cc1 [Compound 6c, (S)-6,7-dimethoxy-3-((R)-4-methoxy-6-(4-nitrobenzyl)-5,6,7,8-tetrahydro-[1,3]dioxolo[4,5-g]isoquinolin-5-yl)isobenzofuran-1(3H)-one] | – | – | 20.72% | 63.49% | 4.85% | 8.08% | 15.38% | 38.41% | 8.27% | 36.73% | 10 ± 0.8 µM | – |
| 61.3 ± 3.1 µM | – | 45.8 ± 2.2 µM | 28.3 ± 2.1 µM | 60 °C | – | – | COc1cccc(CN2CCc3cc4c(c(OC)c3[C@@H]2[C@H]2OC(=O)c3c2ccc(OC)c3OC)OCO4)c1 [Compound 6g, (S)-6,7-dimethoxy-3-((R)-4-methoxy-6-(3-methoxybenzyl)-5,6,7,8-tetrahydro-[1,3]dioxolo[4,5-g]isoquinolin-5-yl) isobenzofuran-1(3H)-one] | – | – | 20.94% | 62.28% | 4.08% | 10.86% | 12.76% | 37.93% | 8.07% | 40.29% | 11.9 ± 0.8 µM | – |
| 28 ± 1.5 µM | – | 25.3 ± 1.2 µM | 15.8 ± 0.5 µM | 179 °C | – | – | COc1ccc2c(c1OC)C(=O)O[C@@H]2[C@H]1c2c(cc3c(c2OC)OCO3)CCN1CC(C)=O [Compound 6h, (S)-6,7-dimethoxy-3-((R)-4-methoxy-6-(2-oxopropyl)-5,6,7,8-tetrahydro-[1,3]dioxolo[4,5-g]isoquinolin-5-yl) isobenzofuran-1(3H)-one] | – | – | 12.25% | 68.58% | 5.92% | 11.37% | 7.19% | 36.18% | 6.28% | 48.73% | 6.9 ± 0.5 µM | – |
| 45.4 ± 2.5 µM | – | 36 ± 1.9 µM | 22.3 ± 1.2 µM | 155 °C | 79 ± 8 µM | -5.602 kcal/mol | COC(=O)CN1CCc2cc3c(c(OC)c2[C@@H]1[C@H]1OC(=O)c2c1ccc(OC)c2OC)OCO3 [Compound 6i, Methyl 2-((R)-5-((S)-4,5-dimethoxy-3-oxo-1,3-dihydroisobenzofuran-1-yl)-4-methoxy-7,8-dihydro-[1,3]dioxolo[4,5-g]isoquinolin-6(5H)-yl)acetate] | – | – | 19.57% | 63.38% | 4.62% | 12.25% | 14.37% | 37.15% | 6.43% | 40.18% | 9.5 ± 0.7 µM | – |
| 72.3 ± 3.5 µM | – | 52.6 ± 3.8 µM | 32.4 ± 2.4 µM | 92 °C | 228 ± 10 µM | -4.973 kcal/mol | CCOC(=O)CN1CCc2cc3c(c(OC)c2[C@@H]1[C@H]1OC(=O)c2c1ccc(OC)c2OC)OCO3 [Compound 6j, Ethyl 2-((R)-5-((S)-4,5-dimethoxy-3-oxo-1,3-dihydroisobenzofuran-1-yl)-4-methoxy-7,8-dihydro-[1,3]dioxolo[4,5-g]isoquinolin-6(5H)-yl)acetate] | – | – | 25.71% | 66.17% | 3.09% | 8.29% | 22.16% | 39.48% | 8.63% | 27.24% | 13.6 ± 1.3 µM | – |

The next lines start with the compound.

| Structure (SMILES) | IC50 [3] | Experimental ΔGbind [5] | IC50 [6] | IC50 [7] | melting point | Kd [8] | Experimental ΔGbind [8] | Binding stoichiometry, noscapine molecule per tubulin dimer [1] | Kd ([1]; values quoted in the text for comparison, read-out: Equilibrium dissociation constant (KD)) | Cell cycle parameters % G0/G1, 24 hours [2] | Cell cycle parameters % G2/M, 24 hours [2] | Cell cycle parameters % S, 24 hours [2] | Cell cycle parameters % Sub-G1, 24 hours [2] | Cell cycle parameters % G0/G1, 72 hours [2] | Cell cycle parameters % G2/M, 72 hours [2] | Cell cycle parameters % S, 72 hours [2] | Cell cycle parameters % Sub-G1, 72 hours [2] | IC50 [4] | Kd [1, 9] |
| --- | --- | --- | --- | --- | --- | --- | --- | --- | --- | --- | --- | --- | --- | --- | --- | --- | --- | --- | --- |
| COc1ccc2c(c1OC)C(=O)O[C@@H]2[C@H]1c2c(cc3c(c2OC)OCO3)CCN1C [Compound 1, noscapine] | 72.9 ± 4.6 µM | -5.246 kcal/mol | 42.3 ± 2.7 µM | 24 ± 2.9 µM | – | – | – | 0.95 ± 0.02 | 144 ± 1 µM | 19.48% | 62.38% | 4.19% | 7.24% | 19.05% | 37.36% | 8.53% | 30.62% | 14.5 ± 2.5 µM | – |
| COc1ccc2c(c1OC)C(=O)O[C@@H]2[C@H]1c2c(c(F)c3c(c2OC)OCO3)CCN1C [Compound 2a] | – | -5.587 kcal/mol | – | – | – | – | – | – | – | – | – | – | – | – | – | – | – | – | 81 ± 8 µM |
| COc1ccc2c(c1OC)C(=O)O[C@@H]2[C@H]1c2c(c(Cl)c3c(c2OC)OCO3)CCN1C [Compound 2b] | – | -6.006 kcal/mol | – | – | – | – | – | – | – | – | – | – | – | – | – | – | – | – | 40 ± 8 µM |
| COc1ccc2c(c1OC)C(=O)O[C@@H]2[C@H]1c2c(c(Br)c3c(c2OC)OCO3)CCN1C [Compound 2c, 9-bromonoscapine] | – | -5.827 kcal/mol | – | – | – | – | – | – | – | – | – | – | – | – | – | – | – | – | 54 ± 9.1 µM |
| COc1ccc2c(c1OC)C(=O)O[C@@H]2[C@H]1c2c(c(I)c3c(c2OC)OCO3)CCN1C [Compound 2d] | – | -6.360 kcal/mol | – | – | – | – | – | – | – | – | – | – | – | – | – | – | – | – | 22 ± 4 µM |
| COc1ccc2c(c1OC)C(=O)O[C@@H]2[C@H]1c2c(c([N+](=O)[O-])c3c(c2OC)OCO3)CCN1C [Compound 2e] | – | -5.551 kcal/mol | – | – | – | – | – | – | – | – | – | – | – | – | – | – | – | – | 86 ± 6 µM |
| COc1ccc2c(c1OC)C(=O)O[C@@H]2[C@H]1c2c(c(N=[N+]=[N-])c3c(c2OC)OCO3)CCN1C [Compound 2f] | – | -6.628 kcal/mol | – | – | – | – | – | – | – | – | – | – | – | – | – | – | – | – | 14 ± 1 µM |
